Assay results published in US20170333391A1, “METHOD FOR DELAYING THE ONSET OF PULMONARY FIBROSIS OR TREATING PULMONARY FIBROSIS” (EVERFRONT BIOTECH INC., priority 2016, published 2017).

Experiments:
TGF-β protein = TGF-β protein expression in transfected NHLF (pcDNA3.1 empty vector or pcDNA3.1-SOX2), western blotting (2-3); type: cell-based, human; settings: TGF-β1 5 ng/ml 12 h
Protocol: The pcDNA3.1 empty vector and the pcDNA3.1-SOX2 plasmid (i.e., pcDNA3.1 vector containing SOX2 gene) were respectively transfected into Normal Human lung fibroblasts (NHLF) by the Fugene HD cell transfection reagent. The cells were screened to obtain NHLFs containing the pcDNA3.1 empty vector or the pcDNA3.1-SOX2 plasmid.
NHLFs containing the pcDNA3.1 empty vector were then seeded into 6 cm culture dishes at a density of 2×10^5 cells/dish, comprising a control group and three experimental groups (4 dishes in total). The cells were cultured until the next day, and then the mediums were removed. Each group was respectively treated under the following conditions to conduct follow-up experiments: • (1) Control group I: cells were cultured in a FGM-2 medium containing 1% serum for 36 hours; • (2) Group A: cells were cultured in a FGM-2 medium containing 1% serum and TGF-β1 (5 ng/ml) for 36 hours; • (3) Group B: cells were firstly cultured in a FGM-2 medium containing 1% serum and TGF-β1 (5 ng/ml) for 12 hours, and then compound (1) was added into the medium to provide a final concentration of 15 μg/ml; thereafter, the cells were cultured for another 24 hours; and • (4) Group C: cells were firstly cultured in a FGM-2 medium containing 1% serum and TGF-β1 (5 ng/ml) for 12 hours, and then compound (1) was added into the medium to provide a final concentration of 30 μg/ml; thereafter, the cells were cultured for another 24 hours.
In another aspect, NHLFs containing the pcDNA3.1-SOX2 plasmid were seeded into the 6 cm culture dishes at a density of 2×10^5 cells/dish, comprising a control group and three experimental groups (4 dishes in total). The cells were cultured until the next day, and then the mediums were removed. Each group was respectively treated under the following conditions to conduct follow-up experiments: • (1) Control group II: cells were cultured in a FGM-2 medium containing 1% serum for 36 hours; • (2) Group D: cells were cultured in a FGM-2 medium containing 1% serum and TGF-β1 (5 ng/ml) for 36 hours; • (3) Group E: cells were firstly cultured in a FGM-2 medium containing 1% serum and TGF-β1 (5 ng/ml) for 12 hours, and then the compound (1) was added into the medium to provide a final concentration of 15 μg/ml; thereafter, the cells were cultured for another 24 hours; and • (4) Group F: cells were firstly cultured in a FGM-2 medium containing 1% serum and TGF-β1 (5 ng/ml) for 12 hours, and then the compound (1) was added into the medium to provide a final concentration of 30 μg/ml; thereafter, the cells were cultured for another 24 hours.
Thereafter, the proteins in the cells of each group were extracted, and the expressions of Sox2 protein, TGF-β protein and type I collagen in the NHLF cells of each group were measured with western blotting. […]

α-SMA protein = α-SMA protein expression in NHLF, western blotting (3-1); type: cell-based, human
Protocol: Normal Human lung fibroblasts (NHLF) were seeded into 6 cm culture dishes at a density of 2×10^5 cells/dish, comprising a control group and six experimental groups (7 dishes in total). The cells were cultured until the next day, and then the mediums were removed. Each group was respectively treated under the following conditions to conduct follow-up experiments: • (1) Control group: cells were cultured in a FGM-2 medium containing 10% serum for 36 hours; • (2) Group i: cells were cultured in a FGM-2 medium containing 1% serum for 36 hours; • (3) Group ii: cells were firstly cultured in a FGM-2 medium containing 1% serum for 12 hours, and then compound (1) was added into the medium to provide a final concentration of 15 μg/ml; thereafter, the cells were cultured for another 24 hours; • (4) Group iii: cells were firstly cultured in a FGM-2 medium containing 1% serum for 12 hours, and then compound (1) was added into the medium to provide a final concentration of 25 μg/ml; thereafter, the cells were cultured for another 24 hours; • (5) Group iv: cells were cultured in a FGM-2 medium containing 1% serum and TGF-β1 (5 ng/ml) for 36 hours; • (6) Group v: cells were firstly cultured in a FGM-2 medium containing 1% serum and TGF-β1 (5 ng/ml) for 12 hours, and then compound (1) was added into the medium to provide a final concentration of 15 μg/ml; thereafter, the cells were cultured for another 24 hours; and • (7) Group vi: cells were firstly cultured in a FGM-2 medium containing 1% serum and TGF-β1 (5 ng/ml) for 12 hours, and then compound (1) was added into the medium to provide a final concentration of 25 μg/ml; thereafter, the cells were cultured for another 24 hours.
Thereafter, the proteins in the cells of each group were extracted, and the expressions of BMP-7 protein, TGF-β protein and α-SMA protein in the NHLF cells of each group were measured with western blotting, wherein the β-actin served as the internal control. The results of the control group served as the basis for calculating the relative expression levels of the other groups.

## CCCC=C1OC(=O)c2ccccc21 [compound (1)]
TGF-β protein; Group B: NHLF with pcDNA3.1 empty vector, then compound (1) 15 μg/ml 24 h, control group I = 1, TGF-β1-only group A = 0.84
  Relative expression level (fold) TGF-β protein: 0.89 fold
TGF-β protein; Group C: NHLF with pcDNA3.1 empty vector, then compound (1) 30 μg/ml 24 h, control group I = 1, TGF-β1-only group A = 0.84
  Relative expression level (fold) TGF-β protein: 0.69 fold
TGF-β protein; Group E: NHLF with pcDNA3.1-SOX2 plasmid, then compound (1) 15 μg/ml 24 h, control group II = 1, TGF-β1-only group D = 0.86
  Relative expression level (fold) TGF-β protein: 0.83 fold
TGF-β protein; Group F: NHLF with pcDNA3.1-SOX2 plasmid, then compound (1) 30 μg/ml 24 h, control group II = 1, TGF-β1-only group D = 0.86
  Relative expression level (fold) TGF-β protein: 0.71 fold
α-SMA protein; Group ii: 1% serum 12 h, then compound (1) 15 μg/ml 24 h, no TGF-β1, 10% serum control = 1, 1% serum group i = 0.94
  Relative expression level (fold) α-SMA protein: 0.95 fold
α-SMA protein; Group iii: 1% serum 12 h, then compound (1) 25 μg/ml 24 h, no TGF-β1, 10% serum control = 1, 1% serum group i = 0.94
  Relative expression level (fold) α-SMA protein: 0.89 fold
α-SMA protein; Group v: 1% serum + TGF-β1 5 ng/ml 12 h, then compound (1) 15 μg/ml 24 h, 10% serum control = 1, TGF-β1-only group iv = 0.89
  Relative expression level (fold) α-SMA protein: 0.72 fold
α-SMA protein; Group vi: 1% serum + TGF-β1 5 ng/ml 12 h, then compound (1) 25 μg/ml 24 h, 10% serum control = 1, TGF-β1-only group iv = 0.89
  Relative expression level (fold) α-SMA protein: 0.77 fold
